Data reported in ChEMBL document CHEMBL1201862, “PubChem BioAssay data set” (2004).
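Protocol summary: plate cells (96-well), add compound at 5 concentrations, incubate 48 h, interpolate endpoints linearly. The concentration for 50% growth inhibition is given as GI50.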 The source made the active and inactive calls. No stated cut-off is given here; in the data, active = GI50 up to about 1.1 µM and inactive = higher.

What was measured:
Test in all cases: inhibition of tumour cell growth, NCI panel, 48 h
[1] = test system: K562
[2] = test system: SK-MEL-2
[3] = test system: SW-620
[4] = test system: U-251
[5] = test system: ACHN
[6] = test system: SK-MEL-5
[7] = test system: IGROV-1
[8] = test system: PC-3
[9] = test system: HCT-116
[10] = test system: RPMI-8226
[11] = test system: NCI-H522
[12] = test system: OVCAR-4
[13] = test system: OVCAR-8
[14] = test system: MOLT-4
[15] = test system: EKVX
[16] = test system: SR
[17] = test system: OVCAR-3
[18] = test system: SF-539
[19] = test system: HT-29

Measured: GI50

CN1CCC/C1=C1/C(=O)N(c2ccccc2)N=C1c1ccc[nH]1
inactive: [1] > 100 µM | [2] > 100 µM | [3] > 100 µM | [4] > 100 µM | [5] > 100 µM | [6] > 100 µM | [7] > 100 µM | [8] > 100 µM | [9] > 100 µM | [10] > 100 µM | [11] > 100 µM | [12] > 100 µM | [13] > 100 µM | [14] > 100 µM | [15] > 100 µM | [16] > 100 µM | [17] > 100 µM

COc1ccc2nc3ccc(OC)cc3c(SCc3ccc([N+](=O)[O-])cc3)c2c1
inactive: [1] > 100 µM | [2] > 100 µM | [3] > 100 µM | [4] > 10 µM | [5] 79.1 µM | [7] 63.5 µM | [8] 68.2 µM | [9] 70.3 µM | [11] 17.3 µM | [12] 19 µM | [18] 39.2 µM | [13] 52.7 µM | [14] > 100 µM | [15] > 100 µM | [16] > 100 µM | [17] 63 µM | [19] 24.1 µM

Cc1csc2c1-n1cccc1C2=O
inactive: [1] > 100 µM | [2] > 100 µM | [3] > 100 µM | [4] > 100 µM | [5] > 100 µM | [6] > 100 µM | [7] > 100 µM | [8] > 100 µM | [9] > 100 µM | [10] > 100 µM | [11] > 100 µM | [12] > 100 µM | [13] > 100 µM | [14] > 100 µM | [15] 64.3 µM | [16] > 100 µM | [17] > 100 µM | [19] > 100 µM

O=C(OC1OC2COC(=O)c3cc(O)c(O)c(O)c3-c3c(cc(O)c(O)c3O)C(=O)OC3C2OC(=O)[C@@]24CC(=O)[C@@](O)(OC25C(=O)O[C@H]2[C@@H](O)CO[C@@]25O)C2(O)Oc5c(O)c(O)cc(c5C24)C(=O)OC13)c1cc(O)c(O)c(O)c1 (stereo not given in full)
inactive: [1] 30.1 µM | [2] > 100 µM | [3] 41.2 µM | [4] 39.6 µM | [5] 32.1 µM | [6] 42.7 µM | [7] 75.9 µM | [8] 42.3 µM | [9] 36.9 µM | [10] 99.5 µM | [11] 19.5 µM | [12] 37.2 µM | [13] 37.1 µM | [14] 40.5 µM | [15] 34.8 µM | [16] 30.3 µM | [17] 50 µM | [19] 23.2 µM

CCN(CC)C(=S)Nc1ccc(-c2cc3ccc(O)cc3oc2=O)cc1
inactive: [1] 18.4 µM | [2] 20.3 µM | [3] 34 µM | [4] 11.8 µM | [5] 25.9 µM | [6] 22.3 µM | [7] 30.6 µM | [8] 23.4 µM | [9] 26.1 µM | [10] 21.6 µM | [11] 17 µM | [18] 29.2 µM | [13] 26.9 µM | [14] 13.4 µM | [15] 32 µM | [16] 14.5 µM | [17] 17.4 µM | [19] 16.8 µM

N#CCCC(CC#N)N1CCN(C(CC#N)CCC#N)CC1 (stereo not given)
inactive: [1] > 100 µM | [3] > 100 µM | [4] > 100 µM | [5] > 100 µM | [6] > 100 µM | [7] > 100 µM | [8] > 100 µM | [9] > 100 µM | [10] > 100 µM | [11] > 100 µM | [12] > 100 µM | [18] > 100 µM | [13] > 100 µM | [14] > 100 µM | [15] > 100 µM | [16] > 100 µM | [17] > 100 µM | [19] > 100 µM

Cc1c2c(cc3c1C(=O)C(O)=C([C@@H](C)CO)C3=O)C(C)(C)CCC2
inactive: [1] 38.7 µM | [2] 17.1 µM | [3] 30.2 µM | [4] 17.5 µM | [6] 22.2 µM | [7] 29 µM | [8] 19.1 µM | [9] 25.7 µM | [10] 31.3 µM | [11] 21.3 µM | [12] 31.3 µM | [13] 25.5 µM | [14] 13.4 µM | [15] 15.6 µM | [16] 2.84 µM | [17] 27 µM | [19] 15.8 µM

CC1(C)S[C@H](CN)N[C@H]1C(=O)OC(c1ccccc1)c1ccccc1
inactive: [1] 22.9 µM | [2] 27.7 µM | [3] 43.6 µM | [4] 33 µM | [5] 84.3 µM | [6] 17.2 µM | [7] 37.4 µM | [8] 25.5 µM | [9] 33.8 µM | [10] 21.6 µM | [11] 31.9 µM | [12] 27.3 µM | [13] 57.9 µM | [14] 24.3 µM | [15] 47.2 µM | [16] 27.9 µM | [19] 33.7 µM
